# Source: patent US4250259A, “Microbiological production of ketones from C3 -C6 secondary alcohols” (priority 1979, dated 1981)
# “Also recorded” adds a separate entry of the source. Like-named read-outs stand apart in the source and are kept apart here.
# Assays:
# [1] = tested on: Candida utilis ATCC 26387; experiment: sec-alcohols to ketones by cell suspensions of yeasts; type: cell-based
# [2] = tested on: cell suspensions of C1-utilizers; experiment: studies on production of 2-butanone from 2-butanol by cell suspensions of the strains tested; type: cell-based; settings: for rate of oxidation of secondary alcohols by strains of C1-utilizers: cell suspensions
# Description: The following summarizes tests conducted on the optimal conditions for the production of methyl ketones from C3 -C6 sec. alcohols.
# The substrate specificity for the oxidation of C3 -C6 secondary alcohols by the strains of C1 -utilizers was studied.
# [3] = tested on: cell extracts (NAD+-dependent secondary alcohol dehydrogenase); experiment: sec-alcohols to methyl ketones by cell extracts of yeasts, gas chromatography; type: biochemical, Candida utilis ATCC 26,387; settings: grown on methanol
# Procedure: The supernantant liquid was termed the crude extracts.
# The reaction mixture, in a total of 3.0 ml., contained 50 mM phosphate buffer, pH 7.0, 20 μmole NAD^+, cell extracts (1 ml.).
# The ketone product obtained from oxidation of sec-alcohols by cell extracts of organisms were estimated by flame ionization gas chromatography by using a stainless steel column (12 ft. by 1/8 in.) packed with 10% Carbowax 20 M on 80/100 chromosorb w column (Perkin Elmer Corp., Norwalk, Conn.). The column temperature was maintained isothermally at 130° C. and the carrier gas flow was 30 ml. of helium per min. […] The protein content of cell-suspensions was determined by the Lowry et al. method.
# NRRL Y-11,328 Torulopsis sp.
# [4] = tested on: Hansenula polymorpha ATCC 26012; experiment: sec-alcohols to ketones by cell suspensions of yeasts; type: cell-based
# [5] = tested on: secondary alcohol dehydrogenase (SADH), cell-free soluble extract
# Procedure: To prepare the cell-free secondary alcohol dehydrogenase (SADH) system, the washed cells were disrupted with a Wave Energy Ultrasonic Oscillator, Model W201 (Wave Energy System, Inc., Newtown, Pa.) and centrifuged at 20,000×g. for 30 minutes. […] The enzyme activity was measured with a fluorescence spectrophotometer (Perkin Elmer, Model MPF 44A) by following the formation of reduced NAD (EX 340 nm, Em 460 nm). The formation of reduced NAD was also followed with an absorption spectrophotometer at 340 nm. The assay system (3 ml.) contained: potassium phosphate buffer pH 7.0; 150 μmol.; NAD 1 μmol.; a given amount of enzyme preparation; and secondary alcohol 10 μmol. The reaction was started by the addition of substrate. One unit of enzyme activity represents the reduction of one μmole NAD per minute. Protein concentrations were determined by the Lowry method (J. Biol. Chem., 193: 255-275 (1951)).
# The experimental procedure for the tests reported in Table VIII were as follows: 1 mg protein of crude extract was added into a 0.5 ml. 0.05 M phosphate buffer (pH 7.0) in a 10-ml. vial. […] The reaction mixture was incubated at 30° C. on a water bath. A 3 μl sample was removed with a syringe at 15 min. of incubation and was assayed with g.l.c. Catalytic activity was also assayed by fluorescence spectrophotometry.
# [6] = tested on: Torulopsis sp. Strain A1 (NRRLY-11,419); experiment: sec-alcohols to ketones by cell suspensions of yeasts; type: cell-based
# [7] = tested on: cell extracts (NAD+-dependent secondary alcohol dehydrogenase); experiment: sec-alcohols to methyl ketones by cell extracts of yeasts, gas chromatography; type: biochemical, Kloeckera sp. strain A2 NRRL-Y-11,420; settings: grown on methanol
# [8] = tested on: Methylosinus sporium 5 (NRRL B-11,197); experiment: sec-alcohols to ketones by resting cell suspensions; type: cell-based
# Procedure: (§1) The pH of the nutrient medium was adjusted to 7.0 by the addition of acid or base and 50 ml. samples of the nutrient medium were charged into a plurality of 300 ml. shaker flasks. The shaker flasks were inoculated with an inoculating loop of cells from an agar plate containing homogeneous colonies of the microorganisms on the plate (the purity of the isolates was confirmed by microscopic examination). The isolates had been maintained on methanol (0.4% V/V) agar plates or on agar plates under an atmosphere of methane and air having a 1:1 V/V gas ratio which had been transferred every two weeks. For growth on methanol, the medium was supplemented with 0.4% methanol. For growth on methane, the gaseous phase of the inoculated flasks was replaced with a gas mixture comprised of methane and air having a ratio of 1:1 on a V/V basis. The inoculated flasks were sealed air-tight and were incubated on a rotary shaker of orbital radius 2.5 cm. at 250 rpm and at 30° C. for two days until turbidity in the medium had developed. The cells were harvested by centrifugation at 10,000×g. at 4° C. for 30 minutes. The cell pellet was washed twice with a 0.05 M phosphate buffer at a pH of 7.0 (containing 0.02 M MgCl2). The washed cells were then suspended in a 0.05 M phosphate buffer at pH 7.0.
# (§2) A 0.5 ml. sample of each washed cell suspension (2 mg. cells) was put into 10 ml. vials at 4° C. which were sealed with a rubber cap. The gaseous phase of the vials was removed with vacuum and then was replaced with a gas mixture of the substrate reactant (i.e., alkane or secondary alcohol) and oxygen at a 1:1 V/V ratio. (In the case of a liquid substrate, i.e., secondary alcohol, 10 μl of the substrate was put in the 10 ml. vials). […] Samples of product (1-3 μl) were withdrawn periodically with a microsyringe and the products were analyzed by gas chromatography (ionization flame detector column).
# (§3) The procedure in Example 1 was repeated wherein a plurality of the methane-utilizing methylotrophic microorganisms were each grown aerobically in a nutrient medium containing methane as the alcohol dehydrogenase enzyme inducer and as the major carbon and energy source for growth. The cells were harvested and washed as described in Example 1. The resting microbial cells of the induced methane-grown methane-utilizing methylotrophic microorganisms were then contacted with C3 -C6 secondary alcohols in a buffered solution by the procedure of Example 1.
# (§4) In this example, the procedure in Example 1 was repeated except that a plurality of methane-utilizing methylotrophic microorganisms were each aerobically grown in a methanol-containing nutrient medium instead of a methane-containing medium. The nutrients in the medium were the same as indicated in Example 1 except that 0.4% V/V methanol was used as the alcohol dehydrogenase inducer and major source of carbon and energy for growth. Following growth, the cells were harvested and washed as described in Example 1.
# (§5) The resting cells of the induced methanol-grown methylotrophic microorganisms were then contacted with secondary alcohols in a buffered solution by the procedure described in Example 1.
# [9] = tested on: Methylomonas albus BG8 (NRRL B-11,200); experiment: as above; type: cell-based
# Procedure: as §1, §2, §3, §4, §5
SMILES,"Conversion Rate, sec-alcohol to corresponding ketone ([1]; Growth Substrate Ethanol)","Conversion Rate, sec-alcohol to corresponding ketone ([1]; Growth Substrate Methanol)","Conversion Rate, sec-alcohol to corresponding ketone ([1]; Growth Substrate Methylamine)","Conversion Rate, sec-alcohol to corresponding ketone ([1]; Growth Substrate Methylformate)","Conversion Rate, sec-alcohol to corresponding ketone ([1]; Growth Substrate Propylamine)",rate of oxidation of secondary alcohols by strains of C1-utilizers [2],"Conversion Rate, sec-alcohol to methyl ketone [3]","Conversion Rate, sec-alcohol to corresponding ketone ([4]; Growth Substrate Ethanol)","Conversion Rate, sec-alcohol to corresponding ketone ([4]; Growth Substrate Methanol)","Conversion Rate, sec-alcohol to corresponding ketone ([4]; Growth Substrate Methylamine)","Conversion Rate, sec-alcohol to corresponding ketone ([4]; Growth Substrate Methylformate)","Conversion Rate, sec-alcohol to corresponding ketone ([4]; Growth Substrate Propylamine)","Conversion Rate, sec-alcohol to corresponding ketone ([6]; Growth Substrate Ethanol)","Conversion Rate, sec-alcohol to corresponding ketone ([6]; Growth Substrate Methanol)","Conversion Rate, sec-alcohol to corresponding ketone ([6]; Growth Substrate Methylamine)","Conversion Rate, sec-alcohol to corresponding ketone ([6]; Growth Substrate Methylformate)","Conversion Rate, sec-alcohol to corresponding ketone ([6]; Growth Substrate Propylamine)","Conversion Rate, sec-alcohol to methyl ketone [7]","Conversion Rates, sec-alcohol to corresponding ketone ([8]; cells grown on methane)","Conversion Rates, sec-alcohol to corresponding ketone ([8]; cells grown on methanol)",also measured
"CCC(C)O (stereo not drawn) [2-Butanol, 2-butanol]",5.2 μmoles/hr/mg of protein,6.8 μmoles/hr/mg of protein,5.0 μmoles/hr/mg of protein,6.2 μmoles/hr/mg of protein,4.2 μmoles/hr/mg of protein,highest rate; also recorded: higher rates,4.92 μmoles/hr/mg Protein,4.8 μmoles/hr/mg of protein,5.8 μmoles/hr/mg of protein,4.5 μmoles/hr/mg of protein,5.2 μmoles/hr/mg of protein,4.0 μmoles/hr/mg of protein,4.7 μmoles/hr/mg of protein,4.9 μmoles/hr/mg of protein,4.5 μmoles/hr/mg of protein,4.9 μmoles/hr/mg of protein,3.8 μmoles/hr/mg of protein,5.9 μmoles/hr/mg Protein,3.0 μmoles/hr/mg protein,3.5 μn moles/hr/mg protein,"2-butanol concentration supporting maximum 2-butanone production ([2]; cell suspensions of yeast and Pseudomonas sp. ATCC 21,439, 35 min. incubation): about 50 μmoles; Conversion Rate, 2-butanol to 2-butanone ([5]; Growth Substrate CH3 NH2): 20.0 nmoles/min/mg protein; Conversion Rate, 2-butanol to 2-butanone ([5]; Growth Substrate CH3 OH): 23.2 nmoles/min/mg protein; Conversion Rate, 2-butanol to 2-butanone ([5]; Growth Substrate HCOOCH3): 16.0 nmoles/min/mg protein; Conversion Rates, sec-alcohol to corresponding ketone ([9]; cells grown on methane): 3.5 μmoles/hr/mg protein; Conversion Rates, sec-alcohol to corresponding ketone ([9]; cells grown on methanol): 3.0 μn moles/hr/mg protein"
"CCCCC(C)O (stereo not drawn) [2-Hexanol, 2-hexanol]",0.72 μmoles/hr/mg of protein,0.8 μmoles/hr/mg of protein,0.61 μmoles/hr/mg of protein,0.75 μmoles/hr/mg of protein,0.52 μmoles/hr/mg of protein,much slower rate,0.45 μmoles/hr/mg Protein,0.54 μmoles/hr/mg of protein,0.72 μmoles/hr/mg of protein,0.62 μmoles/hr/mg of protein,0.70 μmoles/hr/mg of protein,0.48 μmoles/hr/mg of protein,0.20 μmoles/hr/mg of protein,0.21 μmoles/hr/mg of protein,0.12 μmoles/hr/mg of protein,0.25 μmoles/hr/mg of protein,0.10 μmoles/hr/mg of protein,0.25 μmoles/hr/mg Protein,,,
"CCCC(C)O (stereo not drawn) [2-Pentanol, 2-pentanol]",1.0 μmoles/hr/mg of protein,1.5 μmoles/hr/mg of protein,1.2 μmoles/hr/mg of protein,1.3 μmoles/hr/mg of protein,0.9 μmoles/hr/mg of protein,much slower rate,0.82 μmoles/hr/mg Protein,1.1 μmoles/hr/mg of protein,1.4 μmoles/hr/mg of protein,1.2 μmoles/hr/mg of protein,1.3 μmoles/hr/mg of protein,0.82 μmoles/hr/mg of protein,1.2 μmoles/hr/mg of protein,1.0 μmoles/hr/mg of protein,0.9 μmoles/hr/mg of protein,1.1 μmoles/hr/mg of protein,0.62 μmoles/hr/mg of protein,1.2 μmoles/hr/mg Protein,,,
"CC(C)O [2-Propanol, 2-propanol]",5.2 μmoles/hr/mg of protein,6.2 μmoles/hr/mg of protein,5.0 μmoles/hr/mg of protein,5.6 μmoles/hr/mg of protein,4.2 μmoles/hr/mg of protein,higher rates,4.5 μmoles/hr/mg Protein,5.0 μmoles/hr/mg of protein,5.9 μmoles/hr/mg of protein,5.2 μmoles/hr/mg of protein,5.6 μmoles/hr/mg of protein,4.1 μmoles/hr/mg of protein,4.2 μmoles/hr/mg of protein,4.5 μmoles/hr/mg of protein,4.3 μmoles/hr/mg of protein,4.5 μmoles/hr/mg of protein,3.2 μmoles/hr/mg of protein,4.8 μmoles/hr/mg Protein,0.30 μmoles/hr/mg protein,0.45 μn moles/hr/mg protein,"Conversion Rates, sec-alcohol to corresponding ketone ([9]; cells grown on methane): 1.3 μmoles/hr/mg protein; Conversion Rates, sec-alcohol to corresponding ketone ([9]; cells grown on methanol): 1.5 μn moles/hr/mg protein"
